Experimental data from patent US20060069074A1, “Genetic predictor of efficacy of anti-asthmatic agents for improving pulmonary function” (priority 2004, published 2006).

Experiments:
[1] = system: β2-adrenergic receptor (B2AR); settings: cited from earlier work
[2] = Double-blind randomized crossover trial of montelukast and fluticasone propionate in children with asthma; FEV1 response by B2AR diplotype; assay type: in vivo, human; settings: all children, 8-week treatment periods
Excerpt: (§1) Briefly, 144 children ages 6 to 17 years with mild to moderate persistent asthma were enrolled. […] Children with severe asthma were excluded. Strunk R, et al., supra. Informed consent, approved by the Institutional Review Board of the subject's respective study institution, was obtained from a parent/guardian.

[3] = Baseline methacholine challenge (PC20) by B2AR diplotype; assay type: in vivo, human; settings: for Methacholine PC20: geometric mean (95% CI), corrected for baseline percent predicted FEV1
Excerpt: as §1

CC(C)(C)NCC(O)c1ccc(O)c(CO)c1 (stereo not shown) [albuterol]
Immediate bronchial responses to albuterol ([1]; carriers of the Arg16 allele vs carriers of the Gly16 allele, subjects naïve to B2AR-agonists): higher immediate responses
Bronchodilator response (improvement in FEV1) to albuterol ([1]; diplotype 4/6, Drysdale et al.): highest response
Lung function on regularly scheduled albuterol ([1]; homozygotes for Arg16 compared with carriers of the other two genotypes): significant deterioration in lung function

CCC(=O)O[C@]1(C(=O)SCF)[C@H](C)C[C@H]2[C@@H]3C[C@H](F)C4=CC(=O)C=C[C@]4(C)[C@@]3(F)[C@@H](O)C[C@@]21C [fluticasone, fluticasone propionate]
Fraction of children with FEV1 response to fluticasone but not to montelukast [2]: one-fourth

CC(=O)OC(C)C[N+](C)(C)C (stereo not shown) [methacholine]
Methacholine PC20 ([3]; 4/4 diplotype, n=18): 0.6 (0.3, 1.1) mg/ml
Methacholine PC20 ([3]; all other diplotypes, n=106): 1.4 (1.1, 1.7) mg/ml
Dose of methacholine causing a 20% fall in FEV1, difference between groups ([3]; lower in the 4/4 diplotype than in the other diplotypes, adjusted for baseline percent predicted FEV1, p=0.015): 1.3 doubling doses
